Laboratory results published in patent US20220304942A1, “TREATMENT OF OBESITY AND RELATED CONDITIONS” (University of Greenwich, priority 2019, published 2022).

Tests used:
[1] = test system: male, wild-type C57BL/6 mice; assay: Short term (four-week) dosing of 2,3-butanediol in drinking water to wild-type mice; format: in vivo; details: 28 days
Procedure: 2,3-butanediol was then administered over a four-week dosing period to wild-type mice. The 2,3-butanediol was delivered to male, wild-type C57BL/6 mice in drinking water, from 13 to 17 weeks of age. Dose delivery estimation was based on mouse average water consumption. Groups of male mice were either untreated, treated with 60, 250 or 600 mg/kg 2,3-butanediol in their drinking water. Water was changed twice weekly. Weights of mice and food intake were recorded. Urine was collected on day 0 (age 13 weeks, pre-treatment) and at 28 days post-treatment (mice aged 17 weeks) and analysed for 2,3-butanediol.
Blood was collected on day 0 (age 13 weeks) and at 28 days post-treatment (mice aged 17 weeks). Plasma was isolated and analysed. At termination of experiment, epidydimal fat pads (EWAT) were weighed and expressed as EWAT:Body weight ratios, […]

[2] = test system: WT mice; assay: Longer term dosing of 2,3-butanediol to WT mice, with washout cohort; format: in vivo
Procedure: Male mice were dosed with 200 mg/kg/day 2,3-butanediol from age 8 weeks to age 29 weeks. Mice were housed 4 to a cage. […], treatment was removed from one cohort, called the ‘washout 6 weeks’. Treatment continued in one cohort, called ‘treatment throughout’. Urine collected 1 week following removal of 2,3-butanediol confirmed the absence of 2,3-butanediol in the washout cohorts. At the end of the experiment blood was collected and plasma isolated and analysed. Mice were culled, and final body weights and epidydimal fat deposits recorded.

[3] = test system: Sprague-Dawley rat adipocytes; details: cited from earlier work
[4] = 60, 250 or 600 mg/kg in drinking water
[5] = 250 and 600 mg/kg/day doses in drinking water
[6] = 200 mg/kg/day from age 8 weeks to age 29 weeks, male mice
[7] = 200 mg/kg/day from age 8 weeks, treatment removed at age 22 weeks, 6 week washout on water alone

SMILES: CC(O)C(C)O (stereo not drawn) [2,3-butanediol]
- plasma cholesterol ([1]; 250 mg/kg/day dose in drinking water): significantly reduced
- Epididymal white adipose tissue (EWAT) to body weight ratios ([1]; 250 mg/kg/day dose in drinking water, mice aged 13 to 17 weeks): significantly reduced
- plasma alanine aminotransferase [1, 4]: No changes
- plasma alkaline phosphatase [1, 4]: No changes
- plasma aspartate aminotransferase [1, 4]: No changes
- Plasma free fatty acids [1, 5]: significantly reduced
- Plasma lactate dehydrogenase [1, 5]: significantly reduced
- Plasma triglycerides [1, 5]: significantly reduced
- fat (EWAT/body weight) [2, 6]: significant reductions
- plasma cholesterol [2, 6]: significant reductions
- treatment effect on fat (EWAT/body weight) after washout [2, 7]: persistent
- treatment effect on plasma cholesterol after washout [2, 7]: persistent
- 2,3-butanediol in urine after removal of treatment ([2]; urine collected 1 week following removal of 2,3-butanediol, washout cohorts): absence
- 14C-glucose incorporation into triglyceride glycerol ([3]; at higher concentrations): inhibitor
- 14C-glucose incorporation into triglyceride fatty acid [3]: potent inhibitor
